Reference: patent publication US8232407B2, “Nitrogenous heterocyclic compounds with insecticidal activity, and the preparation and use thereof” (East China University of Science and Technology, priority 2008, dated 2012)

Key:
Type in all cases: in vivo
Aphis craccivoral = assay: Insecticidal activities to aphids, immersion method; conditions: for Aphis craccivoral Mortality (%) 500 ppm: in vivo
Summary of the method: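 Immersion assay: compound diluted from 10 g/L DMF stock to 500 ppm in 0.2 mL/L Triton X-100, sprout-feeding wingless adults dipped 5 s. Kept at 23° C, three repeats; 24 h mortality calculated relative to surviving Triton-treated controls.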

Nilaparvata lugens = assay: Insecticidal activities to plant hopper, spraying method; conditions: for Nilaparvata lugens Mortality (%) 500 ppm: in vivo
Summary of the method: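 Spray test: acetone solutions of 500 down to 0.79 ppm, 2 ml per tumbler holding 10 planthoppers introduced 6 h earlier, triplicate, aqueous acetone as control. Mortality at 24 h calculated from survivors relative to control.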

[1] = system: Pseudaletia separate Walker; assay: Insecticidal activities to armyworm, leaf dipping and feeding
Summary of the method: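 Armyworms (10 per tumbler, 3 replicates) ate fresh maize leaves that had been immersed for 3 seconds in compound solutions of 1.57-500 ppm in acetone, or in aqueous acetone for controls. Kills were scored at 24 h, and mortality was calculated relative to survivors in the control group.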

Plutella xylostella = assay: Insecticidal activities to diamondback moth, feeding dipped leaves; conditions: for Plutella xylostella Mortality (%) 500 ppm: in vivo
Summary of the method: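 Mortality was scored 24 h after larvae of Plutella xylostella (10 per treatment, 3 repeats) fed on cabbage leaves immersed 3 s in test solution and dried at room temperature. It was computed relative to survivors in a water-treated control.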

SMILES	Aphis craccivoral Mortality (%) 500 ppm (Aphis craccivoral)	Nilaparvata lugens Mortality (%) 500 ppm (Nilaparvata lugens)	Pseudaletia separate Walker Mortality (%) 500 ppm ([1]; in vivo)	Plutella xylostella Mortality (%) 500 ppm (Plutella xylostella)	mortality at 500 ppm (Aphis craccivoral; Aphis, 500 ppm, immersion method, read-out: Aphis craccivoral Mortality (%) 500 ppm)	mortality at 500 ppm (Nilaparvata lugens; Nilaparvata lugens, 500 ppm, spraying method, counted after 24 hours, read-out: Nilaparvata lugens Mortality (%) 500 ppm)	Pseudaletia separate Walker Mortality (%) 500 ppm ([1]; 500 ppm, leaf dipping and feeding, counted after 24 hours)	mortality at 500 ppm (Plutella xylostella; Plutella xylostella, 500 ppm, feeding dipped leaves, counted after 24 hours, read-out: Plutella xylostella Mortality (%) 500 ppm)
CC(=C(C1=NCCN1Cc1ccc(Cl)nc1)[N+](=O)[O-])c1ccc([N+](=O)[O-])s1 [Compound 117]	83%	88%	77%	86%	–	–	–	–
O=[N+]([O-])C(=Cc1cc(Cl)co1)C1=NCCN1CC1CCOC1 (stereo not drawn) [Compound 96]	32%	50%	58%	52%	–	–	–	–
C[N+]1=C(C(=Cc2oc(Br)cc2Br)[N+](=O)[O-])N(Cc2ccc(Cl)nc2)CC1.[Cl-] [Compound 254]	100%	100%	100%	100%	–	–	–	–
Cc1ccc(C=C(C2=NCCN2Cc2ccc(Cl)nc2)[N+](=O)[O-])o1 [Compound 12]	100%	100%	100%	100%	–	–	–	–
CC[N+]1=C(C(=Cc2ccoc2)[N+](=O)[O-])N(Cc2ccc(Cl)nc2)CC1.[Cl-] [Compound 286]	100%	100%	100%	100%	–	–	–	–
O=[N+]([O-])C(=Cc1ccncc1)C1=NCCN1Cc1ccc(Cl)nc1 [Compound 39]	24%	35%	35%	21%	–	–	–	–
Cc1csc(C=C(C2=NCCN2Cc2ccc(Cl)nc2)[N+](=O)[O-])c1 [Compound 28]	100%	100%	100%	100%	–	–	–	–
Cn1cccc1C=C(C1=NCCN1Cc1ccc(Cl)nc1)[N+](=O)[O-] [Compound 32]	100%	100%	100%	100%	–	–	–	–
O=[N+]([O-])C(=Cc1ccoc1)C1=NCCCN1Cc1ccc(Cl)nc1 [Compound 47]	100%	100%	100%	100%	–	–	–	–
C[N+]1=C(C(=Cc2ccc(Cl)s2)[N+](=O)[O-])N(Cc2ccc(Cl)nc2)CC1.[Cl-] [Compound 262]	100%	100%	100%	100%	–	–	–	–
Cc1ccc(C=C(C2=[N+](C)CCN2Cc2ccc(Cl)nc2)[N+](=O)[O-])s1.[Cl-] [Compound 270]	100%	100%	100%	100%	–	–	–	–
CC(=C(C1=NCCN1Cc1ccc(Cl)nc1)[N+](=O)[O-])c1ccc(Br)s1 [Compound 119]	75%	91%	46%	87%	–	–	–	–
C[N+]1=C(C(=Cc2ccc([N+](=O)[O-])s2)[N+](=O)[O-])N(Cc2ccc(Cl)nc2)CC1.[Cl-] [Compound 261]	100%	100%	100%	100%	–	–	–	–
O=[N+]([O-])C(=Cc1ccc([N+](=O)[O-])o1)C1=NCCN1Cc1ccccc1 [Compound 105]	80%	100%	98%	90%	–	–	–	–
C[N+]1=C(C(=Cc2ccc(Br)o2)[N+](=O)[O-])N(Cc2ccc(Cl)nc2)CC1.[Cl-] [Compound 248]	100%	100%	100%	100%	–	–	–	–
CC[N+]1=C(C(=Cc2ccc(Br)o2)[N+](=O)[O-])N(Cc2ccc(Cl)nc2)CC1.[Cl-] [Compound 289]	100%	100%	100%	100%	–	–	–	–
O=[N+]([O-])/C(=C/c1ccco1)C1=NCCCN1Cc1ccc(Cl)nc1 [Compound 46, 1-((6-chloropyridin-3-yl)methyl)-2-(2-(furan-2-yl)-1-nitrovinyl)-1,4,5,6-tetrahydropyrimidine]	–	–	–	–	100%	100%	100%	100%

SMILES	Aphis craccivoral Mortality (%) 500 ppm (Aphis craccivoral)	Nilaparvata lugens Mortality (%) 500 ppm (Nilaparvata lugens)	Pseudaletia separate Walker Mortality (%) 500 ppm ([1]; in vivo)	Plutella xylostella Mortality (%) 500 ppm (Plutella xylostella)	mortality at 500 ppm (Aphis craccivoral; Aphis, 500 ppm, immersion method, read-out: Aphis craccivoral Mortality (%) 500 ppm)	mortality at 500 ppm (Nilaparvata lugens; Nilaparvata lugens, 500 ppm, spraying method, counted after 24 hours, read-out: Nilaparvata lugens Mortality (%) 500 ppm)	Pseudaletia separate Walker Mortality (%) 500 ppm ([1]; 500 ppm, leaf dipping and feeding, counted after 24 hours)	mortality at 500 ppm (Plutella xylostella; Plutella xylostella, 500 ppm, feeding dipped leaves, counted after 24 hours, read-out: Plutella xylostella Mortality (%) 500 ppm)
O=[N+]([O-])C(=Cc1ccc(Br)o1)C1=NCCCN1Cc1ccc(Cl)nc1 [Compound 50]	100%	100%	100%	100%	–	–	–	–
C[N+]1=C(C(=Cc2ccc([N+](=O)[O-])o2)[N+](=O)[O-])N(Cc2cnc(Cl)s2)CC1.[Cl-] [Compound 277]	100%	100%	100%	100%	–	–	–	–
N#CC(=Cc1ccco1)C1=NCCN1Cc1ccc(Cl)nc1 [Compound 140]	100%	100%	100%	100%	–	–	–	–
C[N+]1=C(C(=Cc2ccsc2)[N+](=O)[O-])N(Cc2ccc(Cl)nc2)CC1.[Cl-] [Compound 260]	90%	92%	80%	89%	–	–	–	–
O=[N+]([O-])C(=Cc1cc(Cl)c(Cl)o1)C1=NCCN1Cc1cnc(Cl)s1 [Compound 75]	100%	100%	100%	100%	–	–	–	–
C[N+]1=C(C(=Cc2ccoc2)[N+](=O)[O-])N(Cc2cnc(Cl)s2)CC1.[Cl-] [Compound 276]	100%	100%	100%	100%	–	–	–	–
O=[N+]([O-])C(=Cc1ccc(Cl)o1)C1=NCCCN1Cc1ccc(Cl)nc1 [Compound 49]	100%	100%	100%	100%	–	–	–	–
CCC(c1ccc(Cl)nc1)N1CCN=C1C(=Cc1ccc[nH]1)[N+](=O)[O-] (racemic) [Compound 132]	73%	84%	89%	99%	–	–	–	–
C[N+]1=C(C(=Cc2ccc(Cl)s2)[N+](=O)[O-])N(Cc2cnc(Cl)s2)CC1.[Cl-] [Compound 283]	100%	100%	100%	100%	–	–	–	–
C[N+]1=C(/C(=C\c2ccc[nH]2)[N+](=O)[O-])N(Cc2cnc(Cl)s2)CC1.[Cl-] [Compound 284]	100%	100%	100%	100%	–	–	–	–
O=[N+]([O-])C(=Cc1cc(Br)c(Br)s1)C1=NCCN1Cc1ccc(Cl)nc1 [Compound 25]	100%	100%	100%	100%	–	–	–	–
O=[N+]([O-])C(=Cc1ccc(CO)o1)C1=NCCN1Cc1ccc(Cl)nc1 [Compound 15]	100%	100%	100%	100%	–	–	–	–
O=[N+]([O-])C(=Cc1cc(Cl)c(Cl)o1)C1=NCCN1Cc1ccccc1 [Compound 108]	87%	95%	24%	24%	–	–	–	–
O=[N+]([O-])C(=Cc1oc(Br)cc1Br)C1=NCCCN1Cc1ccc(Cl)nc1 [Compound 56]	100%	100%	100%	100%	–	–	–	–
CC(c1ccc(Cl)nc1)N1CCN=C1C(=Cc1ccsc1)[N+](=O)[O-] (racemic) [Compound 128]	100%	100%	100%	100%	–	–	–	–
O=[N+]([O-])C(=Cc1ccc(Cl)s1)C1=NCCCN1Cc1ccc(Cl)nc1 [Compound 64]	100%	100%	100%	100%	–	–	–	–
